Data as given in patent US8080423B2, “Reagent containing protease reaction promoter and/or colorant stabilizer” (Asahi Kasei Pharma Corporation, priority 2004, dated 2011).

Key:
Assay type in all cases: physicochemical
[1] = Screening of stabilizer for colorant, MBTH-TOOS (Example 13); conditions: MBTH-TOOS, 37° C.; for blank (distilled water) change in absorbance: 570 nm, additives at conc. (1%; IDA 1 mM; Zn, Al 0.1 mM; ferrocyanide 0.01 mM; sorbitol 5%; DMSO 10%)
[2] = Screening of stabilizer for colorant, overall statements (Example 13); conditions: Tables 2-1 and 2-2
Protocol: (§1) Tween-20 (1%), Brij35 (1%), Triton X-100 (1%), deoxycholic acid (1%), imino-diacetic acid (IDA; 1 mM), ZnSO4 (0.1 mM), AlCl3 (0.1 mM), potassium ferrocyanate (0.01 mM), sorbitol (5%), glucose (5%), sodium nitrite (2 mM), dimethylsulfoxide (DMSO; 10%) (those substances are manufactured by Wako Pure Chemical Industries, Inc.), 2-hydroxypropyl-β-cyclodextrin (2HP β CD; 0.5%, 2%, 5%) and methyl-β-cyclodextrin (M β CD; 0.5%, 2%, 5%) (those substances are manufactured by Nihon Shokuhin Kako Co., Ltd.).
(§2) 500 μl of the R-1 reagent and 500 μl of the R-2 which had been incubated to 37° C. were mixed. The mixture was incubated to 37° C. for 2 minutes, and absorbance thereof (A0) was measured. The mixture was added with 10 μl of 500 μM hydrogen peroxide or distilled water. The whole was incubated to 37° C., and absorbance exactly 5 minutes after the addition of hydrogen peroxide (A1) was measured, to calculate a change in absorbance ΔA (A1-A0). The absorbance was measured using a wavelength of 750 nm when DA64 was used as the colorant, a wavelength of 660 nm when DA67 was used as the colorant, and a wavelength of 570 nm when 4-AA-TOOS was used as the colorant.
(§3) Immediately after the preparation of the reagent, the reagent was preserved at 37° C. for 2 days and 9 days, and measurement of sensitivity of a blank which was distilled water and of hydrogen peroxide was performed.

[3] = Screening of stabilizer for colorant, DA64 (Example 13); conditions: 37° C.; for blank (distilled water) change in absorbance: DA-64, 750 nm, additives at conc. (1%; IDA 1 mM; Zn, Al 0.1 mM; ferrocyanide 0.01 mM; sorbitol 5%; DMSO 10%); for change in absorbance when 500 μM of hydrogen peroxide was measured: DA-64
Protocol: (§4) The following substances were used as test samples. Note that concentrations described in parentheses each represent a final concentration of the substance in the reagent R-1.
as §1, §2, §3

[4] = Screening of stabilizer for colorant, DA67 (Example 13); conditions: 37° C.; for blank (distilled water) change in absorbance: DA-67, 660 nm; for change in absorbance when 500 μM of hydrogen peroxide was measured: DA-67
Protocol: as §4, §1, §2, §3

[5] = 0 days, additives at conc. (1%; IDA 1 mM; Zn, Al 0.1 mM; ferrocyanide 0.01 mM; sorbitol 5%; DMSO 10%)
[6] = 2 days, additives at conc. (1%; IDA 1 mM; Zn, Al 0.1 mM; ferrocyanide 0.01 mM; sorbitol 5%; DMSO 10%)
[7] = 9 days, additives at b284 conc. (Zn, Al 0.1 mM; ferrocyanide 0.01 mM)

blank (distilled water) change in absorbance ([1]; 0 days) | blank (distilled water) change in absorbance ([1]; 2 days) | change in absorbance when 500 μM of hydrogen peroxide was measured ([1]; 0 days, cyclodextrin 0.5%) | change in absorbance when 500 μM of hydrogen peroxide was measured ([1]; 0 days, cyclodextrin 2.0%) | change in absorbance when 500 μM of hydrogen peroxide was measured ([1]; 0 days, cyclodextrin 5.0%) | change in absorbance when 500 μM of hydrogen peroxide was measured ([1]; 2 days, cyclodextrin 0.5%) | change in absorbance when 500 μM of hydrogen peroxide was measured ([1]; 2 days, cyclodextrin 2.0%) | change in absorbance when 500 μM of hydrogen peroxide was measured ([1]; 2 days, cyclodextrin 5.0%) | effect on the blank during preservation (in words) [2] | blank (distilled water) change in absorbance ([3]; 0 days) | blank (distilled water) change in absorbance ([3]; 2 days) | blank (distilled water) change in absorbance ([3]; 9 days) | change in absorbance when 500 μM of hydrogen peroxide was measured ([3]; 0 days, cyclodextrin 0.5%) | change in absorbance when 500 μM of hydrogen peroxide was measured ([3]; 0 days, cyclodextrin 2.0%) | change in absorbance when 500 μM of hydrogen peroxide was measured ([3]; 0 days, cyclodextrin 5.0%) | change in absorbance when 500 μM of hydrogen peroxide was measured ([3]; 2 days, cyclodextrin 0.5%) | change in absorbance when 500 μM of hydrogen peroxide was measured ([3]; 2 days, cyclodextrin 2.0%) | change in absorbance when 500 μM of hydrogen peroxide was measured ([3]; 2 days, cyclodextrin 5.0%) | change in absorbance when 500 μM of hydrogen peroxide was measured ([3]; 9 days, cyclodextrin 0.5%) | change in absorbance when 500 μM of hydrogen peroxide was measured ([3]; 9 days, cyclodextrin 2.0%) | Substance | also measured
0.166 Abs | 0.815 Abs | 0.199 | 0.200 | 0.203 | 0.145 | 0.155 | 0.159 | suppressing effects on the blank | −0.007 Abs | 0.007 Abs | 0.010 Abs | 0.375 | 0.386 | 0.385 | 0.315 | 0.322 | 0.326 | 0.251 | 0.269 | 2-hydroxypropyl-β-cyclodextrin [2HPβCD] | change in absorbance when 500 μM of hydrogen peroxide was measured ([3]; 9 days, cyclodextrin 5.0%): 0.271; blank (distilled water) change in absorbance [4, 5]: 0.119 Abs; blank (distilled water) change in absorbance [4, 6]: 0.762 Abs; blank (distilled water) change in absorbance [4, 7]: 1.822 Abs; change in absorbance when 500 μM of hydrogen peroxide was measured ([4]; 0 days, cyclodextrin 0.5%): 0.531; change in absorbance when 500 μM of hydrogen peroxide was measured ([4]; 0 days, cyclodextrin 2.0%): 0.522; change in absorbance when 500 μM of hydrogen peroxide was measured ([4]; 0 days, cyclodextrin 5.0%): 0.528; change in absorbance when 500 μM of hydrogen peroxide was measured ([4]; 2 days, cyclodextrin 0.5%): 0.301; change in absorbance when 500 μM of hydrogen peroxide was measured ([4]; 2 days, cyclodextrin 2.0%): 0.306; change in absorbance when 500 μM of hydrogen peroxide was measured ([4]; 2 days, cyclodextrin 5.0%): 0.309; change in absorbance when 500 μM of hydrogen peroxide was measured ([4]; 9 days, cyclodextrin 0.5%): 0.277; change in absorbance when 500 μM of hydrogen peroxide was measured ([4]; 9 days, cyclodextrin 2.0%): 0.279; change in absorbance when 500 μM of hydrogen peroxide was measured ([4]; 9 days, cyclodextrin 5.0%): 0.281
0.115 Abs | 0.757 Abs | 0.175 | 0.18 | 0.181 | 0.135 | 0.136 | 0.145 | suppressing effects on the blank | −0.01 Abs | 0.005 Abs | 0.006 Abs | 0.371 | 0.376 | 0.365 | 0.302 | 0.309 | 0.315 | 0.266 | 0.271 | methyl-β-cyclodextrin [MβCD] | change in absorbance when 500 μM of hydrogen peroxide was measured ([3]; 9 days, cyclodextrin 5.0%): 0.273; blank (distilled water) change in absorbance [4, 5]: 0.133 Abs; blank (distilled water) change in absorbance [4, 6]: 0.657 Abs; blank (distilled water) change in absorbance [4, 7]: 1.430 Abs; change in absorbance when 500 μM of hydrogen peroxide was measured ([4]; 0 days, cyclodextrin 0.5%): 0.516; change in absorbance when 500 μM of hydrogen peroxide was measured ([4]; 0 days, cyclodextrin 2.0%): 0.519; change in absorbance when 500 μM of hydrogen peroxide was measured ([4]; 0 days, cyclodextrin 5.0%): 0.515; change in absorbance when 500 μM of hydrogen peroxide was measured ([4]; 2 days, cyclodextrin 0.5%): 0.355; change in absorbance when 500 μM of hydrogen peroxide was measured ([4]; 2 days, cyclodextrin 2.0%): 0.361; change in absorbance when 500 μM of hydrogen peroxide was measured ([4]; 2 days, cyclodextrin 5.0%): 0.364; change in absorbance when 500 μM of hydrogen peroxide was measured ([4]; 9 days, cyclodextrin 0.5%): 0.306; change in absorbance when 500 μM of hydrogen peroxide was measured ([4]; 9 days, cyclodextrin 2.0%): 0.311; change in absorbance when 500 μM of hydrogen peroxide was measured ([4]; 9 days, cyclodextrin 5.0%): 0.323
